Measurements from PMC11597202, “Novel Thiazole-Fused [4,5-g] or [5,4-g]Quinazolin-8-ones and Their Quinazoline Analogues: Synthesis and Biological Evaluation” (Pharmaceuticals, 2024).

Assays:
[1] = In vitro cytotoxic assay, MCF-7; assay type: cell-based; conditions: human, MCF-7 cells (breast cancer cell line); further: 0.1-25 µM tested
Experimental: (§1) Skin normal fibroblastic cells were purchased from Lonza (Basel, Switzerland). […] All culture media were supplemented by 10% of FBS, 1% of penicillin–streptomycin and 2 mM glutamine.
(§2) Chemicals were solubilized in DMSO at a concentration of 10 mM (stock solution) and diluted in culture medium to the desired final concentrations. […] Cells were plated in 96-well plates (4000 cells/well). Twenty-four hours after seeding, the cells were exposed to chemicals. […] Image acquisition and analysis were performed using a Cellomics ArrayScan VTI/HCS Reader (ThermoScientific, Les Ulis, France). The survival percentages were calculated as the percentage of cell number after compound treatment over cell number after DMSO treatment. The relative IC50 values were calculated using the curve fitting XLfit 5.5.0.5 (idbs) integrated in Microsoft Excel as an add-on.
(§3) 4.3.1. Cell culture. Skin normal fibroblastic cells are purchased from Lonza (Basel, Switzerland). Huh7- […]
(§4) from ATCC (American Type Culture Collection). […]
(§5) supplemented by 10% of FBS, 1% of penicillin-streptomycin and 2 mM glutamine.
(§6) 4.3.2. Cytotoxic assay. Chemicals were solubilized in DMSO at a concentration of 10 mM (stock solution) and diluted in culture medium to the desired final concentrations. The dose effect cytotoxic assays (IC50 determination) were performed by increasing the concentrations of each chemical (final well […]
(§7) Cells were plated in 96-well plates
(§8) (4000 cells/well). Twenty-four hours after seeding, cells were exposed to chemicals. After 48h of treatment, cells were washed in PBS and fixed in cooled 90% ethanol/5% acetic acid for 20 min and the […]
(§9) Image acquisition and analysis were performed using a Cellomics ArrayScan VTI/HCS Reader (ThermoScientific). The survival percentages were calculated as the percentage of cell number after compound treatment over cell number after DMSO treatment. The relative IC50 were calculated using the curve fitting XLfit 5.5.0.5 (idbs) integrated in Microsoft Excel as an add-on. The 4 Parameter Logistic Model or Sigmoidal Dose-Response Model describing the sigmoid-shaped response pattern was used (fit = (A+[(B-A)/(1+[(C/x)^D])]) where fit is the response and X is the tested concentration of the compound. The lower asymptote is A (also referred to as the bottom of the curve or lower plateau or the min) and the upper asymptote is B (also referred to as the top of the curve or upper plateau or the max). The slope of the linear part of the curve is described by the factor D. The parameter C is the concentration corresponding to the response midway between A and B. C is called “relative IC50” because it refers to the maximum response obtained by a […]
(§10) The results are represented as the mean ± standard error (SE) calculated from at least three independent experiments.

[2] = target: T1, CDK9/CyclinT (Homo sapiens, UniProt P50750); assay: ADP-Glo kinase inhibition assay, CDK9/CyclinT; assay type: biochemical; conditions: percentage of maximum activity of the DMSO control, mean n = 2, 10 µM ATP, read-out: Residual activity CDK9/CyclinT; for remaining activity at 1 µM: 1 μM compound; for remaining activity at 10 µM: 10 μM compound
T1 construct: host or cells: Sf9 insect cells (baculovirus)
T1 sequence (P50750 whole entry): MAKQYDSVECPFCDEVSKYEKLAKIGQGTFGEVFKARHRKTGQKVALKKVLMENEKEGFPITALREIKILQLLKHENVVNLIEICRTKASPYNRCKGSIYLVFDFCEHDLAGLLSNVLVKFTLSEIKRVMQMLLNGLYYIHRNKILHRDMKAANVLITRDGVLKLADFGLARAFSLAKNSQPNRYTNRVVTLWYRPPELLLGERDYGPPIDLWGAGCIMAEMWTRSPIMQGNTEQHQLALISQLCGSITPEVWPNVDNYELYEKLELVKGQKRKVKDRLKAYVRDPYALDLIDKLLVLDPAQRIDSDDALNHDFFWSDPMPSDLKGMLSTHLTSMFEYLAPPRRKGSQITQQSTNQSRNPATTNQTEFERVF
T1 sequence (O60563 whole entry partner): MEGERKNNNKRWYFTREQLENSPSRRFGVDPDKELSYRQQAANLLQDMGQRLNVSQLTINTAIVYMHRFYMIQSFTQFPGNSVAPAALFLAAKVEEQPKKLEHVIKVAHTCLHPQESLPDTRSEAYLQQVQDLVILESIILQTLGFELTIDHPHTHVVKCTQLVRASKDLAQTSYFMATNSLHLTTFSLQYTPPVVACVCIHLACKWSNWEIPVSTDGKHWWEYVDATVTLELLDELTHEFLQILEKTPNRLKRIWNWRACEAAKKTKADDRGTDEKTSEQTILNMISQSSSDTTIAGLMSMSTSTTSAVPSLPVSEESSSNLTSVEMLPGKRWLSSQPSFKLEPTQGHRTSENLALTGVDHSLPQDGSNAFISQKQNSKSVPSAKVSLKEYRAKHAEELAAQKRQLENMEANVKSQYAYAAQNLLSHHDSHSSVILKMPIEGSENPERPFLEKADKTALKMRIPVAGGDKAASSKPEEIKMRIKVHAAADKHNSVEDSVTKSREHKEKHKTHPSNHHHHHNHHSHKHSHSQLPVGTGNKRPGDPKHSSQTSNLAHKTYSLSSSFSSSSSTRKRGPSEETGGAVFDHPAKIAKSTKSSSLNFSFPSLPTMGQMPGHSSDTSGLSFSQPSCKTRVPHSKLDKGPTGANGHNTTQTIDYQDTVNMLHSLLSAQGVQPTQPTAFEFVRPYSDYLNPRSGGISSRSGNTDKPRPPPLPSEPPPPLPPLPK
Experimental: Kinase enzymatic activities were assayed in 384-well plates using the ADP-Glo^TM assay kit (Promega, Madison, WI, USA) according to the recommendations of the manufacturer. This luminescent ADP detection assay was described by Zegzouti and co-workers and provides a homogeneous and high-throughput screening method to measure kinase activity by quantifying the amount of ADP produced during a kinase reaction. Briefly, the reactions were carried out in a final volume of 6 µL for 30 min at 30 °C in an appropriate kinase buffer (10 mM MgCl2, 1 mM EGTA, 1 mM DTT, 25 mM Tris-HCl pH 7.5, 50 µg/mL heparin), with peptide or protein as substrate in the presence of 10 µM ATP. Peptide substrates were obtained from ProteoGenix (Schiltigheim, France) or Sigma for Histone H1, Poly (L-glutamic acid–L-tyrosine) sodium salt, Casein and MBP. After that, 6 µL of ADP-Glo^TM Kinase Reagent was added to stop the kinase reaction. After an incubation time of 50 min at room temperature (rt), 12 µL of Kinase Detection Reagent was added for one hour at rt. The transmitted signal was measured using the Envision (PerkinElmer, Waltham, MA, USA) microplate luminometer and expressed as Relative Light Units (RLUs). Kinase activities are expressed as percentages of remaining kinase activities detected after treatment with 1 or 10 µM of the tested compounds. The maximum kinase activity was measured in the absence of inhibitor but with an equivalent dose of DMSO (solvent of the tested compounds).
3. Kinase inhibition assays
Kinase enzymatic activities were assayed in 384-well plates using the ADP-GloTM assay kit (Promega, Madison, WI) according to the recommendations of the manufacturer. This luminescent ADP detection assay was described by Zegzouti and co-workers and provides a homogeneous and high-throughput screening method to measure kinase activity by quantifying the amount of ADP produced during a kinase reaction. Briefly, the reactions were carried out in a final volume of 6 µl for 30 min at 30°C in appropriate kinase buffer (10 mM MgCl2, 1 mM EGTA, 1 mM DTT, 25 mM Tris-HCl pH 7.5, 50 µg/mL heparin), with peptide or protein as substrate in the presence of 10 µM ATP. Peptide substrates were obtained from ProteoGenix (Schiltigheim, France) or Sigma for Histone H1, Poly (L-glutamic acid – L-tyrosine) sodium salt, Casein and MBP. After that, 6 µL of ADP-GloTM Kinase Reagent was added to stop the kinase reaction. After an incubation time of 50 min at room temperature (rt), 12 µL of Kinase Detection Reagent was added for 1 h at rt. The transmitted signal was measured using the Envision (PerkinElmer, Waltham, MA) microplate luminometer and expressed in Relative Light Unit (RLU). Kinase activities are expressed in percentages of remaining kinase activities detected after treatment with 1 or 10 µM of the tested compounds. The maximal kinase activity is measured in the absence of inhibitor but with an equivalent dose of DMSO (solvent of the tested compounds).
Table. Human protein kinases tested in the panel: CDK9, HASPIN, PIM1, GSK3b, CK1ε, JAK3, CLK1 […]
Protein Kinase Enzyme Description Substrate1
(Family) (Working concentration)
CDK9/CyclinT Human, recombinant, expressed by Peptide:
(CMGC) baculovirus in Sf9 insect cells […]
CLK1 Human, recombinant, expressed by Peptide: […]
(CMGC) baculovirus in Sf9 insect cells (57.3µM)
DYRK1A Human, recombinant, expressed by Peptide: […]
(CMGC) baculovirus in Sf9 insect cells (10.7µM)
PIM1 Human proto-oncogene, recombinant, Peptide: […]
(CAMK) expressed in bacteria (630 µM)
GSK3 Human, recombinant, expressed by Peptide:
(CMGC) baculovirus in Sf9 insect cells […]pEDEEE 3
HASPIN Human, kinase domain, amino acids 470 to Histone H3 peptide (1-21):
(Other) 798, recombinant, expressed in bacteria […] (8µM)
CK1ε Human, recombinant, expressed by Peptide: […]pAYSITA 2
(CK1) baculovirus in Sf9 insect cells (170µM)
JAK3 Human, recombinant, expressed by Peptide: […]
(TK) baculovirus in Sf9 insect cells (94µM) […]

[3] = In vitro cytotoxic assay, Caco-2; assay type: cell-based; conditions: human, Caco-2 cells (colon cancer cell line); further: 0.1-25 µM tested
Experimental: as §1, §2, §3, §4, §5, §6, §7, §8, §9, §10

With `COC(=N)c1nc2cc3c(=O)n(Cc4ccccc4)cnc3cc2s1` [Compound 6a, Methyl 7-benzyl-8-oxo-7,8-dihydrothiazolo[4,5-g]quinazoline-2-carbimidate] the IC50 at 48 h [1] was 17 µM, the remaining activity at 1 µM [2] was 103% and the remaining activity at 10 µM [2] was 101%. For the same compound, the IC50 at 48 h [3] was 17 µM.
With `COC(=N)c1nc2cc3ncn(Cc4ccccc4)c(=O)c3cc2s1` [Compound 6b, Methyl 7-benzyl-8-oxo-7,8-dihydrothiazolo[5,4-g]quinazoline-2-carbimidate] the IC50 at 48 h [1] was 1 µM, the remaining activity at 1 µM [2] was 107% and the remaining activity at 10 µM [2] was 104%. The IC50 at 48 h [3] was 2 µM.
`COC(=N)c1nc2c(ccc3c(=O)n(Cc4ccccc4)cnc32)s1` [Compound 6c, Methyl 7-benzyl-6-oxo-6,7-dihydrothiazolo[5,4-h]quinazoline-2-carbimidate] showed an IC50 at 48 h [1] of 7 µM, a remaining activity at 1 µM [2] of 105% and a remaining activity at 10 µM [2] of 101%. It also gave an IC50 at 48 h [3] of 6 µM.
For `COC(=N)c1nc2ccc3c(=O)n(Cc4ccccc4)cnc3c2s1` [Compound 6d, Methyl 7-benzyl-6-oxo-6,7-dihydrothiazolo[4,5-h]quinazoline-2-carbimidate], the IC50 at 48 h [1] was 8 µM, the remaining activity at 1 µM [2] was 106% and the remaining activity at 10 µM [2] was 94%. The IC50 at 48 h [3] was 10 µM.
With `COC(=N)c1nc2cc3c(Nc4ccc(OC)cc4F)ncnc3cc2s1` [Compound 15a, Methyl 8-[(2-fluoro-4-methoxyphenyl)amino]thiazolo[4,5-g]quinazoline-2-carbimidate] the IC50 at 48 h [1] was > 25 µM, the remaining activity at 1 µM [2] was 101% and the remaining activity at 10 µM [2] was 100%.
Compound `COC(=N)c1nc2cc3ncnc(Nc4ccc(OC)cc4F)c3cc2s1` [Compound 15b, Methyl 8-[(2-fluoro-4-methoxyphenyl)amino]thiazolo[5,4-g]quinazoline-2-carbimidate] has a remaining activity at 1 µM [2] of 98% and a remaining activity at 10 µM [2] of 110%.
`COC(=N)c1nc2ccc3ncn(Cc4ccccc4)c(=O)c3c2s1` [Compound I, methyl 8-benzyl-9-oxo-8,9-dihydrothiazolo[5,4-f]quinazoline-2-carbimidate, reference compound] gave an IC50 at 48 h [1] of 17 µM, a remaining activity at 1 µM [2] of 91% and a remaining activity at 10 µM [2] of 41%. For the same compound, the IC50 at 48 h [3] was 12 µM.
In the case of `COC(=N)c1nc2ccc3ncnc(Nc4ccc(OC)cc4F)c3c2s1` [Compound II, methyl 9-[(2-fluoro-4-methoxyphenyl)amino]thiazolo[5,4-f]quinazoline-2-carbimidate, reference compound], the IC50 at 48 h [1] is reported as 5 µM, the remaining activity at 1 µM [2] is reported as 86% and the remaining activity at 10 µM [2] is reported as 59%. The IC50 at 48 h [3] was 3 µM.
